These results are taken from ChEMBL document CHEMBL5360608 (ACS Med Chem Lett, 2023).

Calls of active or inactive are those of the source. The rule behind the calls is not given here.

Broadly, the IC50 is the point on the concentration scale where inhibition reaches its midpoint.

Test [1] is filed under the species Homo sapiens. In words: Selectivity ratio of IC50 for human Nav 1.4 expressed in HEK293T cells assessed as tonic block at 0.1 Hz to IC50 for human Nav 1.4 expressed in HEK293T cells assessed as phasic block at 10 Hz. It counts as cell-based.
In test [2] the target is T1, Sodium channel protein type 4 subunit alpha (Homo sapiens, UniProt P35499). In words: Inhibition of human Nav 1.4 expressed in HEK293T cells assessed as phasic block at 10 Hz by whole cell patch clamp assay. The format is cell-based. In general terms: In patch-clamp work, channel activity is measured electrically.
T1 sequence (P35499 whole entry): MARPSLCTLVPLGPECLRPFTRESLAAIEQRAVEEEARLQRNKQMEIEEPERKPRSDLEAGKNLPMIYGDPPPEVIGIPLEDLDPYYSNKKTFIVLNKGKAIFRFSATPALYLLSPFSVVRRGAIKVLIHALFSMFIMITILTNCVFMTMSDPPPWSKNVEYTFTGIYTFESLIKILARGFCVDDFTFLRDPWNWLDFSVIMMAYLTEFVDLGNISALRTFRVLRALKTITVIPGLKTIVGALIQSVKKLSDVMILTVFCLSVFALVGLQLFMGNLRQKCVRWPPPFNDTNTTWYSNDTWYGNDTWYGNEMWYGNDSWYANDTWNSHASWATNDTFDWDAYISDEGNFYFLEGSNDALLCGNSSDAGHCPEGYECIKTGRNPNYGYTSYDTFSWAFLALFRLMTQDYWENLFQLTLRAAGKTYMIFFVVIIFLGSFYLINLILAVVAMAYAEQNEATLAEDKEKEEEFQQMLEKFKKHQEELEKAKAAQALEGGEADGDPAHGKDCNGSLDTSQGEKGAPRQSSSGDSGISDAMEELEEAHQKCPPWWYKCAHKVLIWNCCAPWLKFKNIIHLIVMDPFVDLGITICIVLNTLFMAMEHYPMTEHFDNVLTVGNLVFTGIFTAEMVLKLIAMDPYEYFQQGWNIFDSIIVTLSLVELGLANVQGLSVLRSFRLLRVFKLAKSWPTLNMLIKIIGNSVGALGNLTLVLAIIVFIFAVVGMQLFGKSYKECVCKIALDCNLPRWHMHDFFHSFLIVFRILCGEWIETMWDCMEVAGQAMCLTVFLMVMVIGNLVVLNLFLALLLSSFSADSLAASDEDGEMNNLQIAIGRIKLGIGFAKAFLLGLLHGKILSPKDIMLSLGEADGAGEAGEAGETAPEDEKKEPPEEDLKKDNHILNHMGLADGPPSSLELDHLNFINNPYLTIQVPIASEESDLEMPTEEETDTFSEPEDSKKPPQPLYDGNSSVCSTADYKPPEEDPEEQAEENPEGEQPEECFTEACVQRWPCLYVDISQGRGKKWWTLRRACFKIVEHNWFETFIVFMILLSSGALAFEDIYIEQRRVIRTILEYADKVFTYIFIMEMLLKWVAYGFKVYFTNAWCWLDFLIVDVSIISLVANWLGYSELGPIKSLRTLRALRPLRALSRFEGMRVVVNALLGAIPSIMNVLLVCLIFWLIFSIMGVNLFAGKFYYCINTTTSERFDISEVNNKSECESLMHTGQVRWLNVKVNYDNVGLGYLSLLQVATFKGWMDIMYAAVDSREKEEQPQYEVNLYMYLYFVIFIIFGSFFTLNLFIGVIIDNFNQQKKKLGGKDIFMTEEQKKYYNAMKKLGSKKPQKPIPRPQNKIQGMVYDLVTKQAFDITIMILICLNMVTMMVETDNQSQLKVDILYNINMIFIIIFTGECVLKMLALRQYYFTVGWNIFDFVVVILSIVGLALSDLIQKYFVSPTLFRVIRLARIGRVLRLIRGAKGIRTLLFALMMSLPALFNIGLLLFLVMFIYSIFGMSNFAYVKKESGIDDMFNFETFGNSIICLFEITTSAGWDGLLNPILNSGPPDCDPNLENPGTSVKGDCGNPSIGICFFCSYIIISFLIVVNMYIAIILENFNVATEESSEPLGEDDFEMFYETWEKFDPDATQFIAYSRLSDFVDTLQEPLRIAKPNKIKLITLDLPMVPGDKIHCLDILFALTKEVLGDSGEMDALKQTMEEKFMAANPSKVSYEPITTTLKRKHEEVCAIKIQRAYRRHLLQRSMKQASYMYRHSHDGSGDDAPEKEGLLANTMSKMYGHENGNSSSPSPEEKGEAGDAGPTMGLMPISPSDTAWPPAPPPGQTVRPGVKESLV
For test [3], the target named is T1, Sodium channel protein type 4 subunit alpha. As to the kind of experiment: Inhibition of human Nav 1.4 expressed in HEK293T cells assessed as tonic block at 0.1 Hz by whole cell patch clamp assay. It counts as cell-based.
In test [4] the test system is Mus musculus. As to the kind of experiment: Analgesic activity in po dosed mouse assessed as licking latency at 77 uM measured after 15 mins by hot plate test (reference value: 14.5 to 15.7 sec). The format is functional. The following applies: 0.25 h. (Hot-plate and tail-flick tests time the reaction to a heat stimulus.)
Test [5] addresses T2, Sodium channel protein type 9 subunit alpha (Homo sapiens, UniProt Q15858). In words: Inhibition of human Nav 1.7 expressed in HEK293T cells assessed as phasic block at 10 Hz by whole cell patch clamp assay. It counts as cell-based.
The subject of test [6] is Mus musculus. As to the kind of experiment: Analgesic activity in po dosed mouse assessed as licking latency at 77 uM measured after 60 mins by hot plate test (reference value: 14.5 to 15.7 sec). The format is functional. The note with it: 1 h.
The subject of test [7] is Mus musculus. As to the kind of experiment: Analgesic activity in po dosed mouse assessed as licking latency at 77 uM measured after 30 mins by hot plate test (reference value: 14.5 to 15.7 sec). The format is functional. The note with it: 0.5 h.
Test [8] deals with T2, Sodium channel protein type 9 subunit alpha. As to the kind of experiment: Inhibition of human Nav 1.7 expressed in HEK293T cells assessed as tonic block at 0.1 Hz by whole cell patch clamp assay. The format is cell-based.
Test [9] relates to Mus musculus. In words: Analgesic activity in po dosed mouse assessed as licking latency at 77 uM measured after 45 mins by hot plate test (reference value: 14.5 to 15.7 sec). It counts as functional. The note with it: 0.75 h.
The species entered for test [10] is Homo sapiens. In words: Selectivity ratio of IC50 for human Nav 1.7 expressed in HEK293T cells assessed as tonic block at 0.1 Hz to IC50 for human Nav 1.7 expressed in HEK293T cells assessed as phasic block at 10 Hz. It counts as cell-based.
The subject of test [11] is Mus musculus. In words: Analgesic activity in po dosed mouse assessed as alteration in spontaneous motility at high dose by hot plate test. The format is functional, organism-based.
Test [12] deals with Mus musculus. In words: Analgesic activity in po dosed mouse assessed as alterations in motor coordination at high dose by hot plate test. It counts as functional, organism-based.
The species entered for test [13] is Rattus norvegicus. As to the kind of experiment: Reduction in 9-anthracene carboxylic acid induced myotonic-like condition in Wistar rat skeletal muscle fiber by measuring electable action potential at 0.3 to 10 uM by two intracellular microelectrode current-clamp method. The format is functional, tissue-based. The note with it: Skeletal muscle tissue, dose 0.3-10 µM.

Test [14] is filed under the species Rattus norvegicus. In words: Reduction in 9-anthracene carboxylic acid induced myotonic-like condition in Wistar rat skeletal muscle fiber by measuring electable action potential at upto 10 uM by two intracellular microelectrode current-clamp method. It counts as functional, tissue-based. The following applies: Skeletal muscle tissue.

T2 sequence (Q15858 whole entry): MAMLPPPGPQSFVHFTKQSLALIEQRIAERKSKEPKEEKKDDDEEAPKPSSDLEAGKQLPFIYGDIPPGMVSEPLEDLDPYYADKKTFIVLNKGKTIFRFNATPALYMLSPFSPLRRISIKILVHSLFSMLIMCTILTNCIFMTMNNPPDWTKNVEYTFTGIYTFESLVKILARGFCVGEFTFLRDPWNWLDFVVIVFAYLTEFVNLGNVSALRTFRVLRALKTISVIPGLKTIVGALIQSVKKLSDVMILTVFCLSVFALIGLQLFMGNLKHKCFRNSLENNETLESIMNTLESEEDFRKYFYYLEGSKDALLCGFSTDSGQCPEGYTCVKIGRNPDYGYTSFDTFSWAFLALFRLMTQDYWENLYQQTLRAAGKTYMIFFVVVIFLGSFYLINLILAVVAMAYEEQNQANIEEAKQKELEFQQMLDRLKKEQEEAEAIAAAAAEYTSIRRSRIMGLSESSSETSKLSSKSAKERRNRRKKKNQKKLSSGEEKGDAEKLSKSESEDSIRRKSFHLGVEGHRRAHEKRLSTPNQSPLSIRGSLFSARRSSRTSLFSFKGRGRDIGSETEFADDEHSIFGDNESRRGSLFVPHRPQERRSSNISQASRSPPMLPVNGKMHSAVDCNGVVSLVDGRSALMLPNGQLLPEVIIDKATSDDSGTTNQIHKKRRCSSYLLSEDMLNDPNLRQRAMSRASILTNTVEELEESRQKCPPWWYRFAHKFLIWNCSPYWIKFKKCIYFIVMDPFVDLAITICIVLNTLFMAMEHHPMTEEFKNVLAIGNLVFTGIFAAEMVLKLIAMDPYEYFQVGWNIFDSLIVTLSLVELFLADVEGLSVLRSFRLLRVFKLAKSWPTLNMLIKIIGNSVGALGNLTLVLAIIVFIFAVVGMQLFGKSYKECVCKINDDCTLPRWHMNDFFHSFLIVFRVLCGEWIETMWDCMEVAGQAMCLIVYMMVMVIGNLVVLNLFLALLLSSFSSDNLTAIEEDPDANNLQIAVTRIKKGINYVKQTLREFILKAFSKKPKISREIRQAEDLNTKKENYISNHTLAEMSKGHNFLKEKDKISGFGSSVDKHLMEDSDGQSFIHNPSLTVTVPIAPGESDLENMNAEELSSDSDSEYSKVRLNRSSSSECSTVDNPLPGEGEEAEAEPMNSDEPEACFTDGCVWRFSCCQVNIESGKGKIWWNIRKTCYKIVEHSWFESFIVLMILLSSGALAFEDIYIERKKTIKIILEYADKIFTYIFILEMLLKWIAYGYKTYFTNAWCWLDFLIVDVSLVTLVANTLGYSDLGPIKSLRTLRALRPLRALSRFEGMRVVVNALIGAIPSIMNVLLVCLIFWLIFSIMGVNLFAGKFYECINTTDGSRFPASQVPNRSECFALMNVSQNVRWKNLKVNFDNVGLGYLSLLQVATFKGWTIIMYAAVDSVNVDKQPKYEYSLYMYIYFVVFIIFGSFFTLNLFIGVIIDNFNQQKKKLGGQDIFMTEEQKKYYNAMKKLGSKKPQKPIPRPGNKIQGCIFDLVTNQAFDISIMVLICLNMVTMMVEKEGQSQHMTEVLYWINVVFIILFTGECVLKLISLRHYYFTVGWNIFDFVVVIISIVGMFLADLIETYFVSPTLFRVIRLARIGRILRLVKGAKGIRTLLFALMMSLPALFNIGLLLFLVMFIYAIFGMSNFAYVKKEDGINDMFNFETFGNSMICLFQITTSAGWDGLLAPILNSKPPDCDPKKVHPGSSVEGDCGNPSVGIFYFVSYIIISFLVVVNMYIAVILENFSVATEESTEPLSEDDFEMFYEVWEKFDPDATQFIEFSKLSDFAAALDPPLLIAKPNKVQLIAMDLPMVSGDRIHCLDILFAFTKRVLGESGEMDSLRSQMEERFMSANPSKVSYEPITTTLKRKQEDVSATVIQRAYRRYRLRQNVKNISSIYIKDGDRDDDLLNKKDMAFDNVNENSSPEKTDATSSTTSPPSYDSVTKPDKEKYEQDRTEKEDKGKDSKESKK

Regarding `Nc1nc2ccc(C(F)(F)F)cc2s1`, the Ratio IC50 in the test listed under Homo sapiens [1] is 1.1. The IC50 in [2] was found to be 53 µM; in test [3] it was 58 µM.

Take `FC(F)(F)Oc1ccc2nc(N3CCNCC3)sc2c1`: the values for the Ratio IC50 in the test filed under Homo sapiens [1] and in the test listed under Homo sapiens [10] were 2.5 and 2.2, respectively. For the same compound, the Activity with Mus musculus [4] is given as 16.8 s; in the test with Mus musculus [6], 15.5 s; with Mus musculus [7] it was 18.8 s; in the test on Mus musculus [9] it was 17.3 s. Also, the IC50 was 24 µM in test [5], 38 µM in [2], 52 µM in [8] and 95 µM in [3].

For `CNCCN(C)c1nc2ccc(OC(F)(F)F)cc2s1`, the Activity with Mus musculus [4] was 17.8 s; in the test on Mus musculus [6], 16 s; in the test on Mus musculus [7], 18 s; with Mus musculus [9], 16.6 s.

Consider `Nc1nc2ccc(OC(F)(F)F)cc2s1` [RILUZOLE], for which the Activity with Mus musculus [4] is given as 20.5 s; in the test with Mus musculus [6], 18.3 s; with Mus musculus [7], 25.6 s; with Mus musculus [9], 24.3 s. Further, the outcome in the test with Mus musculus [11] and with Mus musculus [12] was inactive. The IC50 in test [2] was determined as 51 µM; in [3] it was 63 µM. In addition, the outcome in the test filed under Rattus norvegicus [13] was Active.

For the compound `CC(C)c1ccc2nc(N)sc2c1`, the Ratio IC50 in the test filed under Homo sapiens [1] was found to be 1.3. Further, the IC50 in [2] was determined as 89 µM; in [3] it was 118 µM.

Take `c1ccc(Oc2ccc3nc(N4CCNCC4)sc3c2)cc1`: the Ratio IC50 in the test listed under Homo sapiens [1] amounted to 4; in the test filed under Homo sapiens [10], 2.2. In addition, the Activity in the test with Mus musculus [4] came to 21.6 s; with Mus musculus [6], 19.9 s; with Mus musculus [7], 26.2 s; in the test with Mus musculus [9], 23.1 s. For the same compound, the outcome in the test listed under Rattus norvegicus [14], with Mus musculus [11] and in the test on Mus musculus [12] was inactive. For the same compound, the IC50 in [5] was 48 µM; in [2] it was 63 µM; in test [8], 106 µM; in [3], 250 µM.
